From patent EP3189850A1, “LIVER TARGETING OF CYCLIC PRES-DERIVED PEPTIDES OF HBV” (Ruprecht-Karls-Universität Heidelberg, priority 2015, dated 2017)
Bridge positions count the residues as written; N and C are the ends. Square brackets hold non-standard residues; d marks the D form. Ends that are not written are not given here. * marks the point of attachment. Myristoyl = CCCCCCCCCCCCCC(=O)*

Legend:
[1] = Biodistribution and γ-camera imaging of the 125I-labeled peptide (Figure 4); format: in vivo; conditions: γ-camera / biodistribution in NMRI mice
NTCP = target: T1, NTCP (Mus musculus, UniProt O08705); test: Scintigraphic imaging (125I) and MicroPET (68Ga) of labelled peptides with and without excess of Myrcludex B (Figure 3); format: in vivo; conditions: healthy mice; labelled peptide with and without excess of Myrcludex B; 20 and 120 min p.i.
T1 construct: from tissue; host or cells: liver of healthy mice, in vivo imaging
T1 sequence (O08705 1-362): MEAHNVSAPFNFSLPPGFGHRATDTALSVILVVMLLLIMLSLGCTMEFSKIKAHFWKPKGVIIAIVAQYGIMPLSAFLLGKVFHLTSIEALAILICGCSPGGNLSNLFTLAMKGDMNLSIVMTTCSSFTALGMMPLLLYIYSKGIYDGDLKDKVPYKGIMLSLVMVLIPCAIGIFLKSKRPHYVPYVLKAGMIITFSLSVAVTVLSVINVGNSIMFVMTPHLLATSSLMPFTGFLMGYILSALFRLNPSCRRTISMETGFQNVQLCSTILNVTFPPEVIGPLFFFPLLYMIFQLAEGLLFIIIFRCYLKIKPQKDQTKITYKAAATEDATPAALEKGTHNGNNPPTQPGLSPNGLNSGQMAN
Experimental: Ca. 1 mL of [^68Ga]Ga^3+ eluate (ca. 600-800 MBq) was added to a mixture of 20 µL of a 1mM solution of compound xy in DMSO and 10 µL of saturated solution of ascorbic acid in water. The pH of the resulting mixture was adjusted to 3.5-4.0 by careful addition of a 2.5 M sodium acetate solution in water. Complexation was achieved by heating to over 95°C for 5-10 minutes under constant stirring. The product was isolated by solid phase extraction with ethanol followed by evaporation. The residue was taken up in 1% bovine serum albumin solution and an appropriate amount (ca. 20-50 MBq) was used for the individual experiment in a volume not exceeding 100 µl. Mice were anesthetized with 1% sevoflurane (Abbott, Wiesbaden, Germany) and images were recorded using an Inveon small animal positron emission tomographic (PET) scanner (Siemens, Knoxville, TN) up to 60 minutes postinjection.

Row | Substance | elimination via the intestine (time) [1] [h] | liver accumulation [1] | accumulation in the liver (NTCP)
1 | myr-cyclo-intra[NP^*LGFFPDy] | ≤ 2 | accumulates rapidly in the liver | 
2 | myr-cyclo[CNPLGFFPDC]y (Myristoyl-CNPLGFFPDC[dY]; disulfide 1-10; also: 125I-labelled) [cyclo[9-16]myr, myristoylated Cys-HBVpreS9-16-Cys-D-Tyr cyclized via disulfide bridge of the two cysteines] |  |  | NTCP specific accumulation in the liver
